Data: patent US12643871B2, “Aryl formamide compound containing chiral sulfur oxide or salt thereof, preparation method, herbicidal composition and use thereof” (Qingdao Kingagroot Chemical Compound Co., Ltd., priority 2019, dated 2026)

What was measured:
Format in all cases: in vivo
Green Setaria viridis = assay: Comparison experiment (post-emergence) against racemate / S configuration; details: for Results of comparison experiment, Green Setaria viridis (60 g/ha): 25DAA
Source text: (§1) The above growth control rates are fresh weight control rates.
(§2) Experiment on weeding effect in post-emergence stage: monocotyledonous and dicotyledonous weed seeds (Descurainia sophia, Capsella bursa-pastoris, Galium aparine, Stellaria media, Lithospermum arvense, Rorippa indica, Alopecurus aequalis, Beckmannia syzigachne, Sclerochloa dura, Phleum paniculatum, Bromus japonicus, Aegilops tauschii, Phalaris arundinacea, Amaranthus retroflexus, Chenopodiaceae, Commelina communis, Sonchus arvensis, convolvulus arvensis, Cirsium setosum, Solanum nigrum, Acalypha australis, Digitaria sanguinalis, Echinochloa crusgalli, Setaria viridis, Setaria glauca, Leptochloa chinensis, Monochoria vaginalis, Sagittaria trifolia, Scirpus juncoides, Cyperus rotundus, Cyperus iria, Cyperus difformis, Fimbristylis, Portulaca oleracea, Xanthium sibiricum, Pharbitis nil) and major crop seeds (wheat, corn, rice, soybean, cotton, oilseed rape, millet, sorghum, potato, sesame, ricinus) were placed in plastic pots filled with soil, then covered with 0.5-2 cm of soil, allowed to grow in a good greenhouse environment. […] The tested compounds of the present invention were respectively dissolved in acetone, then added with Tween 80 and 1.5 liter/ha of emulsifiable concentrate of methyl oleate as synergist, diluted with a certain amount of water to obtain a solution with a certain concentration, and sprayed with a spray tower onto the plants. […]
(§3) If there is no clear marker, the post-seedling test conditions are the same as above, and the experimental results are shown in Tables 4-7.

Digitaria sanguinalis [1] = assay: as above; details: Table 6, post-seedling test conditions; for pest or weed control at 30 g/ha: Digitaria sanguinalis, post-emergence
Source text: as §1
(§4) Experiment on weeding effect in post-emergence stage: monocotyledonous and dicotyledonous weed seeds (Descurainia sophia, Capsella bursa-pastoris, Galium aparine, Stellaria media, Lithospermum arvense, Rorippa indica, Alopecurus aequalis, Beckmannia syzigachne, Sclerochloa dura, Phleum paniculatum, Bromus japonicus, Aegilops tauschii, Phalaris arundinacea, Amaranthus retroflexus, Chenopodiaceae, Commelina communis, Sonchus arvensis, convolvulus arvensis, Cirsium setosum, Solanum nigrum, Acalypha australis, Digitaria sanguinalis, Echinochloa crusgalli, Setaria viridis, Setaria glauca, Leptochloa chinensis, Monochoria vaginalis, Sagittaria trifolia, Scirpus juncoides, Cyperus rotundus, Cyperus iria, Cyperus difformis, Fimbristylis, Portulaca oleracea, Xanthium sibiricum, Pharbitis nil) and major crop seeds (wheat, corn, rice, soybean, cotton, oilseed rape, millet, sorghum, potato, sesame, ricinus) were placed in plastic pots filled with soil, then covered with 0.5-2 cm of soil, allowed to grow in a good greenhouse environment. After 2 weeks of sowing, the test plants were treated in the 2 leaf stage. The tested compounds of the present invention were respectively dissolved in acetone, then added with Tween 80 and 1.5 liter/ha of emulsifiable concentrate of methyl oleate as synergist, diluted with a certain amount of water to obtain a solution with a certain concentration, and sprayed with a spray tower onto the plants. After the application, the plants were cultured for 15 days in the greenhouse, and then the experimental results of the weeding were counted. The doses of the used compounds were 500, 250, 125, 60, 30, 15 g/ha, and the averages were obtained by repeating for three times.
as §3

Alopecurus japonicas = assay: as above; details: Table 6, post-seedling test conditions
Source text: as §1, §4, §3

Digitaria sanguinalis [2] = assay: as above; details: 30 g/ha, 3-4 weeks after sowing, 4-5 leaf-stage of weed, 25DAA
Abutilon theophrasti [3] = assay: as above; details: 30 g/ha; 3-4 weeks after sowing, 4-5 leaf-stage of weed, 25DAA
Source text: as §1, §2, §3

Leptochloa chinensis = assay: as above; details: for Results of comparison experiment, Leptochloa chinensis (60 g/ha) / Results of comparison experiment, Leptochloa chinensis (125 g/ha): 3-4 weeks after sowing, 4-5 leaf-stage of weed; for Results of comparison experiment, Leptochloa chinensis (60 g/ha): 25DAA; for Results of comparison experiment, Leptochloa chinensis (125 g/ha): 25 DAA (Table 5)
Source text: as §1, §2, §3

Rice(Longyang 16) = assay: Comparison experiment (post-emergence), crop safety on direct seeding rice; details: for Results of comparison experiment, Rice(Longyang 16) (250 g/ha) / Results of comparison experiment, Rice(Longyang 16) (500 g/ha): 1.5-2 leaf-stage of direct seeding rice variety Longyang 16, 25 DAA
Source text: as §1, §4, §3
Longyang 16 is an important cultivated variety representative of long-grain fragrant rice in northeast China. Long-grain fragrant rice is sensitive to herbicides and prone to drug damage, especially HPPD herbicides such as mesotrione and benzobicylon. […] It was not consistent with the well-known structure-activity relationship that aryloxyphenoxypropionic acid herbicides and phenoxypropionic acid herbicides in effective form have high activity to weeds and heavy damage to crops, and in ineffective form have almost no activity.

Abutilon theophrasti [4] = assay: Weeding effect in post-emergence stage; details: 250 g/ha; 2 leaf stage; 15 days after application; fresh weight control rate
In short: (§5)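 Reported levels reflect fresh weight growth control rate banded 0 (<5%) through 5 (>85%), averaged over three repetitions. Treatment: foliar spray of 2-leaf-stage greenhouse plants at 15 to 500 g/ha, with 1.5 liter/ha methyl oleate synergist; assessment 15 days after application.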

Setaria viridis = assay: Weeding effect in post-emergence stage; details: 250 g/ha; 2 leaf stage; 15 days after application; fresh weight control rate
In short: as §5

Echinochloa crusgali = assay: Weeding effect in post-emergence stage; details: 250 g/ha; 2 leaf stage; 15 days after application; fresh weight control rate
In short: as §5

Digitaria sanguinalis [5] = assay: Weeding effect in post-emergence stage; details: 250 g/ha; 2 leaf stage; 15 days after application; fresh weight control rate
In short: as §5

Amaranthus retroflexus = assay: Weeding effect in post-emergence stage; details: 250 g/ha; 2 leaf stage; 15 days after application; fresh weight control rate
In short: as §5

rice and other crops = assay: Comparison experiment (post-emergence, Tables 4-7), crop safety; details: dose of 125, 60, 30, 15 g/ha
Source text: as §1, §4, §3

[6] = test system: key weeds such as Digitaria sanguinalis, Leptochloa chinensis; assay: Comparison experiment (post-emergence, Tables 4-7), herbicidal activity on weeds not listed separately; details: dose of 125, 60, 30, 15 g/ha
In short: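 Readout: fresh weight control rate, counted 15 days post-spray and averaged over three replicates. Pot-grown plants (seeds under 0.5-2 cm soil) were treated at the 2 leaf stage, two weeks after sowing, with 15–500 g/ha compound plus methyl oleate synergist at 1.5 liter/ha.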

[7] = Table 6, post-seedling test conditions
[8] = 3-4 weeks after sowing, 4-5 leaf-stage of weed, 25 DAA (Table 5)
[9] = 3-4 weeks after sowing, 4-5 leaf-stage of weed

| Structure (SMILES) | Results of comparison experiment, Green Setaria viridis (30 g/ha) (Green Setaria viridis; [7]) | pest or weed control at 30 g/ha (Digitaria sanguinalis [1]) | Results of comparison experiment, Alopecurus japonicas (120 g/ha) (Alopecurus japonicas) | Results of comparison experiment, Digitaria sanguinalis (30 g/ha) (Digitaria sanguinalis [1]) | Results of comparison experiment, Digitaria sanguinalis (30 g/ha) (Digitaria sanguinalis [2]) | Results of comparison experiment, Abutilon theophrasti (30 g/ha) (Abutilon theophrasti [3]) | Results of comparison experiment, Leptochloa chinensis (60 g/ha) (Leptochloa chinensis) | Results of comparison experiment, Green Setaria viridis (60 g/ha) (Green Setaria viridis; [9]) | also measured |
| --- | --- | --- | --- | --- | --- | --- | --- | --- | --- |
| CCS(=O)(=O)c1c(C(F)(F)F)ccc(C(=O)Nc2nnc(C)o2)c1SC [Control Compound C′] | 80% | 10% | 20% | – | – | – | – | – | – |
| CSc1c(C(=O)Nc2nnc(C)o2)ccc(C(F)(F)F)c1[S@@+](C)[O-] [Compound 547] | 80% | – | 40% | 90% | – | – | – | – | – |
| CCC[S+]([O-])c1c(C(F)(F)F)ccc(C(=O)Nc2nnc(C)o2)c1F (single isomer, unassigned) [Control Compound B] | – | – | – | – | 80% | 90% | 30% | 90% | Results of comparison experiment, Leptochloa chinensis (125 g/ha) (Leptochloa chinensis): 80%; Results of comparison experiment, Green Setaria viridis (30 g/ha) (Green Setaria viridis; [8]): 10%; Results of comparison experiment, Rice(Longyang 16) (250 g/ha) (Rice(Longyang 16)): 5%; Results of comparison experiment, Rice(Longyang 16) (500 g/ha) (Rice(Longyang 16)): 15% |
| CCC[S+]([O-])c1c(C(F)(F)F)ccc(C(=O)Nc2nnc(C)o2)c1F (single isomer, unassigned) [Control Compound A] | – | – | – | – | 0% | 0% | 0% | 15% | Results of comparison experiment, Leptochloa chinensis (125 g/ha) (Leptochloa chinensis): 10%; activity against key weeds such as Leptochloa chinensis, in words (Leptochloa chinensis; summary of Table 5): lower activity; Results of comparison experiment, Green Setaria viridis (30 g/ha) (Green Setaria viridis; [8]): 0%; Results of comparison experiment, Rice(Longyang 16) (250 g/ha) (Rice(Longyang 16)): 15%; Results of comparison experiment, Rice(Longyang 16) (500 g/ha) (Rice(Longyang 16)): 25%; safety to rice (Longyang 16), in words (Rice(Longyang 16); summary of Table 5): not safe |
| Cc1nnc(NC(=O)c2ccc(C(F)(F)F)c([S@@+](C)[O-])c2F)o1 [Compound 1] | – | – | – | – | 90% | 100% | 70% | 80% | weeding effect in post-emergence stage, activity level (growth control rate), Abutilon theophrasti (Abutilon theophrasti [4]): 5 (Level 5: growth control rate is above 85%); weeding effect in post-emergence stage, activity level (growth control rate), Setaria viridis (Setaria viridis): 3 (Level 3: growth control rate is greater than or equal to 40% and less than 60%); weeding effect in post-emergence stage, activity level (growth control rate), Echinochloa crusgali (Echinochloa crusgali): 5 (Level 5: growth control rate is above 85%); weeding effect in post-emergence stage, activity level (growth control rate), Digitaria sanguinalis (Digitaria sanguinalis [5]): 3 (Level 3: growth control rate is greater than or equal to 40% and less than 60%); weeding effect in post-emergence stage, activity level (growth control rate), Amaranthus retroflexus (Amaranthus retroflexus): 5 (Level 5: growth control rate is above 85%) |
| CSc1c(C(=O)Nc2nnc(C)o2)ccc(C(F)(F)F)c1[S+](C)[O-] (centres unmarked) [Control Compound E′] | 40% | – | 15% | 40% | – | – | – | – | – |
| CSc1c(C(=O)Nc2nnc(C)o2)ccc(C(F)(F)F)c1[S+](C)[O-] (centres unmarked) [Control Compound F′] | 5% | – | 0% | 0% | – | – | – | – | – |
| CCC[S@@+]([O-])c1c(C(F)F)ccc(C(=O)Nc2nnc(C)o2)c1F [Compound 637] | – | – | – | – | – | 100% | 90% | 100% | safety to rice and other crops compared with the corresponding racemate or S configuration (rice and other crops): higher safety; weeding effect in post-emergence stage, activity level (growth control rate), Abutilon theophrasti (Abutilon theophrasti [4]): 5 (Level 5: growth control rate is above 85%); weeding effect in post-emergence stage, activity level (growth control rate), Setaria viridis (Setaria viridis): 5 (Level 5: growth control rate is above 85%); weeding effect in post-emergence stage, activity level (growth control rate), Echinochloa crusgali (Echinochloa crusgali): 5 (Level 5: growth control rate is above 85%); weeding effect in post-emergence stage, activity level (growth control rate), Digitaria sanguinalis (Digitaria sanguinalis [5]): 5 (Level 5: growth control rate is above 85%); weeding effect in post-emergence stage, activity level (growth control rate), Amaranthus retroflexus (Amaranthus retroflexus): 5 (Level 5: growth control rate is above 85%); pest or weed control at 30 g/ha (Digitaria sanguinalis [2]; Digitaria sanguinalis, post-emergence, 600 h): 100%; activity to key weeds such as Digitaria sanguinalis, Leptochloa chinensis compared with the corresponding racemate or S configuration [6]: better activity |
| CC[S+]([O-])c1c(C(F)(F)F)ccc(C(=O)Nc2nnc(C)o2)c1SC (centres unmarked) [Control Compound B′] | 30% | 30% | 0% | – | – | – | – | – | – |
| CCSc1c(C(F)(F)F)ccc(C(=O)Nc2nnc(C)o2)c1SC [Control Compound D′] | 20% | 20% | 0% | – | – | – | – | – | – |
